Entries after “also recorded” stand apart in the source; their conditions may differ.
Key:
[1] = test system: multi-drug resistance (MDR) proteins in HeLa cells; test: Accumulation of SkQ variants in HeLa cells / expulsion by MDR pumps (flow cytometry); type: cell-based, human; settings: for order of decreasing MDR-affinity: correlation suggested by the example; for accumulation in HeLa cells after MDR inhibitor: 100 nM SkQs, Pluronic L61 30 ug/ml added 10 minutes before, FIG. 17
Description: In the following experiment we have evaluated MDR expulsion of a timoquinone based SkQRT. HeLa cells were treated with 100 nM SkQRT and the activity of multidrug resistance pumps was estimated by fluorescence measurement using a Beckman Coulter FC 500 flow cytometer. […] Cells were incubated with 100 nM SkQs. After 60 minute, the medium was changed to control medium without SkQs (indicated with vertical line). […] It must be noted that MDR pumps are usually activated in tumor cells (for example HeLa), but not in normal non-malignant cells (fibroblasts or 3T3 cells).

human fibroblasts = test: Protection from peroxide-induced cell death; type: cell-based; settings: for protection from H2O2-induced apoptosis: FIG. 22
Description: Its activity was compared to the one of the most efficient MTA-SkQR1. The experiment was performed according to Antonenko et al., (Biochem. (Mosc.) (2008) 73:1273-1287 and the results are shown in FIG. 11.
The experiment was performed according to Antonenko et al., (Biochem. (Mosc.) (2008) 73:1273-1287. (see FIG. 12).
These experiments were performed as described in Antonenko et al (2008).

rat liver mitochondria = test: H2O2 formation by rat liver mitochondria (prooxidant effect, Amplex Red); type: biochemical; settings: up to 15 um concentrations in the medium; FIG. 15
Description: Incubation medium contained 0.18 M mannitol, 0.07 M sucrose, 0.2 mM Tris-phosphate, 0.5 mM EGTA, pH 7.2, 20 mM Tris-succinate, 2 uM Amplex Red, 5 U horseradish Peroxidase, 6 mM aminotriazole (an inhibitor of catalase) and mitochondria corresponding to 0.25 mg protein. Excitation wavelength was of 563 nm, Emission wavelength was of 585 nm.

[2] = test system: Y. lipolytica mitochondria; test: H2O2 formation by Y. lipolytica mitochondria (Amplex red); type: biochemical; settings: for rate of H2O2 formation by Y. lipolytica mitochondria: certain concentrations, 0.1 mg mitochondrial protein, FIG. 13, 14
Description: The experiment was performed in the following conditions: incubation medium contained 0.6 M mannitol, 20 mM Tris-succinate,0.5 mM EGTA, 0.2 mM Tris-phosphate, pH 7.2, 2 uM Amplex red, horse radish peroxidase (5 U) and mitochondria corresponding to 0.1 mg protein. […] Measurements were made using absorption/emission 530/590 nm.

[3] = test system: primary cultured human fibroblasts; test: Accumulation in primary cultured human fibroblasts (non-tumor cells); type: cell-based; settings: FIG. 18
energized mitochondria = test: Reduction of SkQB by energized mitochondria; type: biochemical; settings: FIG. 19
mitochondria [4] = test: Hydrogen peroxide production by mitochondria in the presence of antimycin A; type: biochemical; settings: FIG. 21
Source text: In the next experiment we measured hydrogen peroxide production by mitochondria in the presence of antimycin A (as described in Skulachev et al 2010, Biochim Biophys Acta, 1797(6-7), 878-8).

isolated mitochondria = test: Antioxidant activity in isolated mitochondria damaged by the Fenton reaction; settings: FIG. 20
Description: Antioxidant activity was measured in isolated mitochodnria subjected to oxidative damage by the Fenton reaction (method described in Antonenko et al 2008).

[5] = test system: electron transport chain (ETC) of mitochondria isolated from rat heart
mitochondria [6] = settings: mitochondria supplemented with certain concentrations of SkQT; FIG. 8
Source text: Several compounds according to the invention were synthesized as described above and tested for biological activity as described in Antonenko et al., (Biochem. (Mosc.) (2008) 73:1273-1287).

CC1=C(C)C(=O)C(CCCCCCCCCC[P+](c2ccccc2)(c2ccccc2)c2ccccc2)=C(C)C1=O [SkQ3]
order of decreasing MDR-affinity [1]: SkQB>SkQT>SkQ1>SkQ3

CC1=C(C)C(=O)C(CCCCCCCCCC[P+](c2ccccc2)(c2ccccc2)c2ccccc2)=CC1=O.[Br-] [SkQ1, reference compound]
protection from H2O2-induced apoptosis (human fibroblasts): good protection | order of decreasing MDR-affinity [1]: SkQB>SkQT>SkQ1>SkQ3 | prooxidant effect: stimulation of H2O2 formation by rat liver mitochondria at high concentrations (rat liver mitochondria): prooxidant effect | rate of H2O2 formation by Y. lipolytica mitochondria [2]: considerably lower

CC/N=c1/cc2oc3cc(NCC)c(C)cc3c(-c3ccccc3C(=O)OCCCCCCCCCCC3=CC(=O)C(C)=C(C)C3=O)c-2cc1C [SkQR1, reference compound]
accumulation in HeLa cells after MDR inhibitor [1]: increased accumulation | accumulation in human fibroblasts, SkQR1 compared with SkQRT1 [3]: no significant difference

CCN=c1cc2oc3cc(NCC)c(C)cc3c(-c3ccccc3C(=O)OCCCCCCCCCCC3=CC(=O)C(C)=CC3=O)c-2cc1C [SkQRT1, 10-(2-methyl-1,4-benzoquinonyl-5)-decyl ester of rhodamine 19]
accumulation in HeLa cells after MDR inhibitor [1]: increased accumulation | accumulation in human fibroblasts, SkQR1 compared with SkQRT1 [3]: no significant difference

O=C1C=CC(=O)C(CCCCCCCCCC[P+](c2ccccc2)(c2ccccc2)c2ccccc2)=C1 [SkQB, 10-(1,4-benzoquinonyl-2)decyltriphenylphosphonium bromide]
protection from H2O2-induced apoptosis (human fibroblasts): weak protection | order of decreasing MDR-affinity [1]: SkQB>SkQT>SkQ1>SkQ3 | reduction by energized mitochondria (energized mitochondria): can be reduced by energized mitochondria in an antimycin-sensitive way | hydrogen peroxide production (pro-oxidant activity) (mitochondria [4]): pronounced pro-oxidant activity; also recorded: to a greater extent than SkQ1 | antioxidant activity (isolated mitochondria): very weak antioxidant activity; also recorded: lower compared to SkQ1

10-(2-methyl-1,4-benzoquinonyl-5)decyltriphenylphosphonium bromide [SkQT]
prevention of peroxide-induced cell death (human fibroblasts; FIG. 11): very efficient | protection from H2O2-induced cell death by different dosages (human fibroblasts; FIG. 12): protection of human fibroblasts | protection from H2O2-induced apoptosis (human fibroblasts): good protection | effect of myxothiasole on reduction of the quinone form ([5]; 1 uM myxothiasole added at 10 min point, FIG. 10): prevented further reduction | reduction by mitochondria ([5]; rat heart mitochondria 0.05 mg/ml, 5 mM succinate, 2 uM rotenone, 100 nM SkQT, FIG. 9): can be reduced by mitochondria | protection of mitochondria from oxidative damage (malondialdehyde concentration) (mitochondria [6]): successfully protected mitochondria from oxidative damage | prooxidant effect: stimulation of H2O2 formation by rat liver mitochondria at high concentrations (rat liver mitochondria): did not stimulate H202 formation | rate of H2O2 formation by Y. lipolytica mitochondria [2]: dramatically decrease | window between lowest and highest no effect doses ([2]; compared with SkQ1, biological examples 5 and 6): much wider | hydrogen peroxide formation by mitochondria at optimal concentration ([2]; optimal concentration, biological examples 5 and 6): almost completely prevented hydrogen peroxide formation
